Experimental findings from PMC8301025 (Biology, 2021) are described below.

The assay has as its target T1, CLas GMPS (guanosine 5′-monophosphate synthetase).
T1 construct: gene guaA
The format is biochemical, Candidatus Liberibacter asiaticus.

Take `CCN(CCCOc1ccc2c(Nc3cc(CC(=O)Nc4cccc(F)c4)n[nH]3)ncnc2c1)CCOP(=O)(O)O` [Compound1334, AZD1152]: the Ki – broadly, a dissociation constant, usually derived from enzyme kinetics or from competition with a known ligand – came out at 4.05 µM. `Nc1nc(=O)c2nc(CNc3ccc(C(=O)N[C@@H](CCC(=O)O)C(=O)O)cc3)cnc2[nH]1` [Compound5481, folic acid] showed a Ki of 52 µM.
